Reference: US11279691B2, “Substituted pyridine and pyrazine compounds as PDE4 inhibitors” (Dart Neuroscience LLC, priority 2013, dated 2022)

Biological target: T1, PDE4D3 (Homo sapiens, UniProt Q08499)
T1 construct: GST
Type: biochemical
Settings: GST-tagged PDE4D3, 200 nM FAM-cAMP, 11-point dose-response; read-out: PD4d3 pEC50 (converted)

T1 sequence (Q08499 1-673 isoform Q08499-2): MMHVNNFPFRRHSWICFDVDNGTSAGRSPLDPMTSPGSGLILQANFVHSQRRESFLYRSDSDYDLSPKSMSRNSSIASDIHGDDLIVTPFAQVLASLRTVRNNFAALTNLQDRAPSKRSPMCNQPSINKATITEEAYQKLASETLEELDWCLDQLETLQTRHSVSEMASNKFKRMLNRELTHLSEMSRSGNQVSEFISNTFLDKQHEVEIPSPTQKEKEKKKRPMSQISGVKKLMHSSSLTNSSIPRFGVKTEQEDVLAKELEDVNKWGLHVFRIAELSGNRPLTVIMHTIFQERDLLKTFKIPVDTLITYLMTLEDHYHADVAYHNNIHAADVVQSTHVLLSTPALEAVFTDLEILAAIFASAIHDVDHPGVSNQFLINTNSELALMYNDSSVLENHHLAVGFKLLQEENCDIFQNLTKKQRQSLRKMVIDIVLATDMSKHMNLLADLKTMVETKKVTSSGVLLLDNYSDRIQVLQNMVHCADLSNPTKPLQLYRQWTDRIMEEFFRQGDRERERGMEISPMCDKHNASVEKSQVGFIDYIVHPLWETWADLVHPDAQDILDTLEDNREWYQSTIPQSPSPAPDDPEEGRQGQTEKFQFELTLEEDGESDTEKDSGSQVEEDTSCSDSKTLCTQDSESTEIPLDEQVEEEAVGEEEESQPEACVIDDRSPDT

SMILES | EC50 [nM]
COc1ncc(Cc2cnc(C(N)=O)nc2)cc1-c1ccc(F)c(Cl)c1 [Example 282, 5-{[5-(3-Chloro-4-fluorophenyl)-6-methoxypyridin-3-yl]methyl}pyrimidine-2-carboxamide] | 100 to 1000
CCOc1ncc(Cn2cnc(C(N)=O)c2)cc1-c1cccc(Cl)c1 [Example 310, 1-{[5-(3-Chlorophenyl)-6-ethoxypyridin-3-yl]methyl}-1H-imidazole-4-carboxamide] | 100 to 1000
CCOc1ncc(Cc2cnc(N)nc2)cc1-c1ccc(F)c(C)c1 [Example 352, 5-{[6-Ethoxy-5-(4-fluoro-3-methylphenyl)pyridin-3-yl]methyl}pyrimidin-2-amine] | < 100
COc1ncc(Cn2ccc(C(N)=O)n2)cc1-c1ccnc(C#N)c1 [Example 307, 1-{[5-(2-Cyanopyridin-4-yl)-6-methoxypyridin-3-yl]methyl}-1H-pyrazole-3-carboxamide] | 1000 to 10000
COc1ncc(Cc2cnc(N)cn2)cc1-c1ccc(Cl)c(F)c1 [Example 379, 5-{[5-(4-Chloro-3-fluorophenyl)-6-methoxypyridin-3-yl]methyl}pyrazin-2-amine] | 100 to 1000
COc1ncc(Cc2ccc(CC(N)=O)cc2)cc1-c1ccc(Cl)c(F)c1 [Example 365, 2-(4-{[5-(4-Chloro-3-fluorophenyl)-6-methoxypyridin-3-yl]methyl}phenyl)acetamide] | < 100
COc1cc(-c2cc(Cn3cnc(N)n3)cnc2OC)ccc1F [Example 407, 1-{[5-(4-Fluoro-3-methoxyphenyl)-6-methoxypyridin-3-yl]methyl}-1H-1,2,4-triazol-3-amine] | 1000 to 10000
COc1ncc(Cc2ccc(C#N)cn2)cc1-c1cccc(Cl)c1 [Example 378, 6-{[5-(3-Chlorophenyl)-6-methoxypyridin-3-yl]methyl}pyridine-3-carbonitrile] | 100 to 1000
COc1ncc(Cc2ccc(CC(N)=O)cc2)cc1-c1ccc(F)c(F)c1 [Example 363, 2-(4-{[5-(3,4-Difluorophenyl)-6-methoxypyridin-3-yl]methyl}phenyl)acetamide] | < 100
CCOC(=O)Cc1ccc(Cc2cnc(OC)c(-c3ccc(F)c(F)c3)c2)cc1 [Intermediate 49, Ethyl 2-(4-{[5-(3,4-difluorophenyl)-6-methoxypyridin-3-yl]methyl}phenyl)acetate] | < 100
Cc1nc(CO)cn1Cc1cnc(OC(F)F)c(-c2cccc(Cl)c2)c1 [Example 321, (1-{[5-(3-Chlorophenyl)-6-(difluoromethoxy)pyridin-3-yl]methyl}-2-methyl-1H-imidazol-4-yl)methanol] | 100 to 1000
COc1ncc(Cn2nnnc2CCO)cc1-c1cccc(Cl)c1 [Example 295, 2-(1-((5-(3-Chlorophenyl)-6-methoxypyridin-3-yl)methyl)-1H-tetrazol-5-yl)ethanol] | 1000 to 10000
COc1ncc(Cc2cnc(C(C)(C)C(N)=O)nc2)cc1-c1cccc(Cl)c1 [Example 367, 2-(5-{[5-(3-Chlorophenyl)-6-methoxypyridin-3-yl]methyl}pyrimidin-2-yl)-2-methylpropanamide] | 100 to 1000
CCOc1ncc(Cn2nnnc2C)cc1-c1ccc(F)cc1 [Example 296, 2-Ethoxy-3-(4-fluorophenyl)-5-((5-methyl-1H-tetrazol-1-yl)methyl)pyridine] | < 100
COc1ncc(Cc2cnc(CC(N)=O)nc2)cc1-c1ccc(Cl)c(F)c1 [Example 366, 2-(5-{[5-(4-Chloro-3-fluorophenyl)-6-methoxypyridin-3-yl]methyl}pyrimidin-2-yl)acetamide] | 100 to 1000
CCOc1ncc(Cn2nnc(C)n2)cc1-c1ccnc(OC(F)F)c1 [Example 394, 3-[2-(Difluoromethoxy)pyridin-4-yl]-2-ethoxy-5-[(5-methyl-2H-1,2,3,4-tetrazol-2-yl)methyl]pyridine] | < 100
COc1ncc(Cc2cnc(N)nc2)cc1-c1cccc(C#N)c1 [Example 356, 3-{5-[(2-Aminopyrimidin-5-yl)methyl]-2-methoxypyridin-3-yl}benzonitrile] | 100 to 1000
CCOc1ccc(Cc2cnc(OC)c(-c3cccc(Cl)c3)c2)nc1 [Example 286, 3-(3-Chlorophenyl)-5((5-ethoxypyridin-2-yl)methyl)-2-methoxy pyridine] | > 10000
CCOc1cccc(-c2cc(Cn3nnnc3C)cnc2OCC)c1 [Example 401, 2-Ethoxy-3-(3-ethoxyphenyl)-5-[(5-methyl-1H-1,2,3,4-tetrazol-1-yl)methyl]pyridine] | 100 to 1000
CCOc1cccc(-c2cc(Cn3cnc(CO)n3)cnc2OCC)c1 [Example 334, (1-{[6-Ethoxy-5-(3-ethoxyphenyl)pyridin-3-yl]methyl}-1H-1,2,4-triazol-3-yl)methanol] | 100 to 1000
CCOc1ncc(Cc2cnc(N)nc2)nc1-c1ccc(F)c(F)c1 [Example 293, 5-((6-(3,4-difluorophenyl)-5-ethoxypyrazin-2-yl)methyl)pyrimidin-2-amine] | < 100
COc1ncc(Cc2cnc(CC(N)=O)nc2)cc1-c1ccc(F)cc1 [Example 281, 2-(5-{[5-(4-Fluorophenyl)-6-methoxypyridin-3-yl]methyl}pyrimidin-2-yl)acetamide] | < 100

SMILES | EC50 [nM]
COc1ncc(Cn2nnc(CO)n2)cc1-c1ccc(F)cc1 [Example 381, (2-{[5-(4-Fluorophenyl)-6-methoxypyridin-3-yl]methyl}-2H-1,2,3,4-tetrazol-5-yl)methanol] | 100 to 1000
Cc1nc(CO)cn1Cc1cnc(OCC(F)F)c(-c2cccc(Cl)c2)c1 [Example 406, (1-{[5-(3-Chlorophenyl)-6-(2,2-difluoroethoxy)pyridin-3-yl]methyl}-2-methyl-1H-imidazol-4-yl)methanol] | < 100
CCOc1ncc(Cn2cnc(CO)n2)cc1-c1cccc(OC(F)(F)F)c1 [Example 333, [1-({6-Ethoxy-5-[3-(trifluoromethoxy)phenyl]pyridin-3-yl}methyl)-1H-1,2,4-triazol-3-yl]methanol] | 100 to 1000
NC(=O)Cc1ncn(Cc2cnc(OC(F)F)c(-c3cccc(Cl)c3)c2)n1 [Example 372, 2-(1-{[5-(3-Chlorophenyl)-6-(difluoromethoxy)pyridin-3-yl]methyl}-1H-1,2,4-triazol-3-yl)acetamide] | < 100
CCOc1ncc(Cc2cnc(N)nc2)cc1-c1ccc(F)c(F)c1 [Example 353, 5-{[5-(3,4-Difluorophenyl)-6-ethoxypyridin-3-yl]methyl}pyrimidin-2-amine] | < 100
CCOc1ncc(Cn2nnc(C)n2)cc1-c1ccc(F)cc1 [Example 392, 2-Ethoxy-3-(4-fluorophenyl)-5-[(5-methyl-2H-1,2,3,4-tetrazol-2-yl)methyl]pyridine] | < 100
COc1ncc(Cn2nnc(CO)n2)cc1-c1ccc(F)c(F)c1 [Example 383, (2-{[5-(3,4-Difluorophenyl)-6-methoxypyridin-3-yl]methyl}-2H-1,2,3,4-tetrazol-5-yl)methanol] | 100 to 1000
CCOc1ncc(Cc2cncc(F)c2)cc1-c1ccnc(OC(F)F)c1 [Example 306, 3-[2-(Difluoromethoxy)pyridin-4-yl]-2-ethoxy-5-[(5-fluoropyridin-3-yl)methyl]pyridine] | < 100
CCOc1ncc(Cn2cnc(CO)n2)cc1-c1ccc(F)c(Cl)c1 [Example 337, (1-{[5-(3-Chloro-4-fluorophenyl)-6-ethoxypyridin-3-yl]methyl}-1H-1,2,4-triazol-3-yl)methanol] | < 100
CCOc1ncc(Cc2cnc(NCCO)nc2)nc1-c1ccc(F)c(F)c1 [Example 294, 2-((5-((6-(3,4-difluorophenyl)-5-ethoxypyrazin-2-yl)methyl)pyrimidin-2-yl)amino)ethanol] | < 100
COc1ncc(Cc2cnc(N3CCC(O)C3)nc2)cc1-c1cccc(Cl)c1 (stereo not shown) [Example 389, 1-(5-{[5-(3-Chlorophenyl)-6-methoxypyridin-3-yl]methyl}pyrimidin-2-yl)pyrrolidin-3-ol] | 100 to 1000
COc1ncc(Cc2cnc(OCC(C)(C)O)nc2)cc1-c1cccc(Cl)c1 [Example 318, 1-[(5-{[5-(3-Chlorophenyl)-6-methoxypyridin-3-yl]methyl}pyrimidin-2-yl)oxy]-2-methylpropan-2-ol] | 1000 to 10000
COc1ncc(Cn2cnc(CO)n2)cc1-c1cccc(Cl)c1 [Example 336, (1-{[5-(3-Chlorophenyl)-6-methoxypyridin-3-yl]methyl}-1H-1,2,4-triazol-3-yl)methanol] | < 100
COc1ncc(Cn2nnnc2CO)cc1-c1ccc(Cl)c(F)c1 [Example 386, (1-{[5-(4-Chloro-3-fluorophenyl)-6-methoxypyridin-3-yl]methyl}-1H-1,2,3,4-tetrazol-5-yl)methanol] | 1000 to 10000
COc1ncc(Cc2cnc(NCCO)nc2)cc1-c1ccc(F)c(F)c1 [Example 375, 2-[(5-{[5-(3,4-Difluorophenyl)-6-methoxypyridin-3-yl]methyl}pyrimidin-2-yl)amino]ethan-1-ol] | < 100
CCOc1ncc(Cc2cnc(N)nc2)cc1-c1ccc(F)cc1 [Example 350, 5-{[6-Ethoxy-5-(4-fluorophenyl)pyridin-3-yl]methyl}pyrimidin-2-amine] | < 100
COc1ncc(Cc2cnc(N)cn2)cc1-c1ccc(F)c(Cl)c1 [Example 288, 5-((5-(3-Chloro-4-fluorophenyl)-6-methoxypyridin-3-yl)methyl)pyrazin-2-amine] | < 100
COc1ncc(Cn2nnnc2CO)cc1-c1cccc(Cl)c1 [Example 387, (1-{[5-(3-Chlorophenyl)-6-methoxypyridin-3-yl]methyl}-1H-1,2,3,4-tetrazol-5-yl)methanol] | 1000 to 10000
COc1cc(-c2cc(Cc3cnc(N)nc3)cnc2OC)ccc1F [Example 354, 5-{[5-(4-Fluoro-3-methoxyphenyl)-6-methoxypyridin-3-yl]methyl}pyrimidin-2-amine] | 100 to 1000
CCOc1ncc(Cn2nnnc2C)cc1-c1ccc(F)c(Cl)c1 [Example 398, 3-(3-Chloro-4-fluorophenyl)-2-ethoxy-5-[(5-methyl-1H-1,2,3,4-tetrazol-1-yl)methyl]pyridine] | < 100
COc1ncc(Cc2cnc(N)cn2)cc1-c1cccc(Cl)c1 [Example 287, 5-((5-(3-Chlorophenyl)-6-methoxypyridin-3-yl)methyl)pyrazin-2-amine] | < 100
